Data on 2 compounds can be found in US20200093786A1, “S[…] OF CANNABIS FOR TREATING MULTIPLE MYELOMA” (One World Cannabis LTD, priority 2014, published 2020).

In assay [1] the test system is CD138+ cells from myeloma patients. Nature of the assay: XTT cell viability and combination index, CD138+ cells from bone marrow aspirate of MM patients (Example 8). The class given is cell-based, human. As to conditions: for survival of MM cells (in words): CD138+ patient cells, each of the patients tested, concentration dependent manner, FIG. 4; for IC50: Homo sapiens, read-out: dose that caused 50% of MM cell death (IC50); for sensitivity of the patient's cells / more effective combination (in words): CD138+ cells, 48 hours. On the procedure: This conversion only occurs in viable cells.
Peripheral blood samples from MM patients and healthy donors are processed by Ficoll density gradient centrifugation to isolate peripheral blood mononuclear cells (PBMCs). […] For co-culture assays MM cells are stained with CFSE, cultured in the presence of HS-5 human stroma cell line, treated with the drugs and their viability is evaluated by counterstained with PI and cell viability evaluation by flow cytometer analysis.
XTT assay was performed to assess cell viability. Each treatment was performed in triplicate and presented as mean±SE.
Combination Index (CI) value <1, =1, >1 indicates synergism, additive effect, and antagonism, respectively. Pat 1, 2, 3 indicate the patient number.
(Tetrazolium assays rely on reduction of a dye to a coloured formazan, in cell work by metabolically active cells.)

The test system of assay [2] is RPMI-MR20 (mitoxantrone-resistant cells). Briefly: XTT cell viability, mitoxantrone-resistant MM cells (Example 9). The class given is cell-based. Particulars: RPMI-MR20, 48 hours, concentration dependent manner, FIG. 5. The procedure:
(§1) RPMI-MR20, RPMI-LR5 and RPMI-Dox40 were cultured during 48 hours with CBD (FIG. 5A), THC (FIG. 5B), CBD:THC 1:1 (FIG. 5C), CBD:THC 1:5 (FIG. 5D) and CBD:THC 5:1 (FIG. 5E). XTT assay was performed to assess cell viability.

Assay [3] has as its system RPMI-LR5 (LEN-resistant cells). Nature of the assay: XTT cell viability, LEN-resistant MM cells (Example 9). The class given is cell-based. As to conditions: RPMI-LR5, 48 hours, concentration dependent manner, FIG. 5. On the procedure: as §1
Assay [4] deals with RPMI-Dox40 (DOXO-resistant cells). Nature of the assay: XTT cell viability, DOXO-resistant MM cells (Example 9). As to conditions: RPMI-Dox40, 48 hours, concentration dependent manner, FIG. 5. The class given is cell-based. The procedure: as §1
In another assay the test system is MM cells. As to conditions: CBD by itself or in synergy with bortezomib; reference [8]; cited from earlier work.

The structures appear in SMILES notation. Read-outs that look alike come from different tables or passages of the source.

For `C=C(C)[C@@H]1CCC(C)=C[C@H]1c1c(O)cc(CCCCC)cc1O` [CBD, Cannabidiol], the “survival of MM cells (in words)” value in assay [1], in assay [2], in assay [3] and in assay [4] was “decreased survival” in each case. Further, the IC50 – broadly, the point on the concentration scale where inhibition reaches its midpoint – in assay [1] (CD138+ cells of patients 1 to 3, 48 hours, FIG. 4D) lay in the range of 6.7 to 12.5 µM. Besides, the “sensitivity of the patient's cells / more effective combination (in words)” value in assay [1] (Patient 1 (SM, no treatment)) is listed as “less sensitive to CBD than to THC”; in assay [1] (Patient 2 (VTD)), “slightly more sensitive to CBD than to THC”. Also, the “growth of MM cells (in words)” value with MM cells is on record as “strongly inhibited growth”.

On to `CCCCCc1cc(O)c2c(c1)OC(C)(C)[C@@H]1CCC(C)=C[C@@H]21` [THC, Tetrahydrocannabinol], for which the “survival of MM cells (in words)” value in assay [1], in assay [2], in assay [3] and in assay [4] was “decreased survival” in each case. The IC50 in assay [1] (48 h) was in the range of 6 to 35 µM. The “sensitivity of the patient's cells / more effective combination (in words)” value in assay [1] (Patient 3 (VCD)) was “less sensitive to THC than to CBD”.
